Experimental data from patent US7713994B2 (Wyeth LLC, priority 2005, dated 2010).

What was measured:
HCT-116 = test: Cytotoxicity assay (SRB), HCT-116; type: cell-based; conditions: Homo sapiens, HCT-116, 72 h, HCT116 cells, SRB, three days; read-out: In Vitro Cellular Activity IC50 HCT116
How it was run: (§1)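 Overnight-seeded monolayers (4000–12000 cells/well by line) receive compound in 5% FBS medium at 37 °C, 7% CO2. After 3 d, or 6 d for BT474, cellular protein is fixed with cold TCA, stained with SRB and read at 540 nm against untreated wells.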

SK-UT-1B = test: In Vitro Cellular Activity (Table III), SK-UT-1B; type: cell-based; conditions: Homo sapiens, Skut1B; SK-UT-1B cells
cyclin E/CDK2 enzyme = biological target: T1, cyclin E/CDK2 enzyme (Homo sapiens, UniProt P24941); test: CDK2 ELISA kinase assay (phospho-Rb ser 795 detection); type: biochemical; conditions: In Vitro Enzyme Assays, read-out: CDK2 IC50
T1 construct: made in house; host or cells: Sf9 insect cells, recombinant baculovirus
How it was run: (§2)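 Wells were coated overnight with GST-Rb C-terminal fragment, then blocked. Compound (10 ug/ml final) and cyclin/CDK enzyme from baculovirus-infected Sf9 cells with 200 μM ATP reacted 1 h at 30° C. Ser795 phosphorylation was detected by ELISA at 450 nm.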

BT474 = test: Cytotoxicity assay (SRB), BT474; type: cell-based; conditions: Homo sapiens, BT-474, 144 h, BT474 cells, SRB, 6 days; read-out: In Vitro Cellular Activity IC50 BT474
How it was run: as §1

MCF-7 = test: Cytotoxicity assay (SRB), MCF-7; type: cell-based; conditions: Homo sapiens, MCF7, 72 h, MCF-7 cells, SRB, three days; read-out: In Vitro Cellular Activity IC50 MCF-7
How it was run: as §1

LoVo = test: Cytotoxicity assay (SRB), LoVo; type: cell-based; conditions: Homo sapiens, LoVo, 72 h, LoVo cells, SRB, three days; read-out: In Vitro Cellular Activity IC50 LOVO
How it was run: as §1

cyclin B/CDK1 enzyme = biological target: T2, cyclin B/CDK1 enzyme (Homo sapiens, UniProt P06493); test: CDK1 ELISA kinase assay (phospho-Rb ser 795 detection); type: biochemical; conditions: In Vitro Enzyme Assays, read-out: CDK1 IC50
T2 construct: purchased New England BioLabs; host or cells: Sf9 insect cells, recombinant baculovirus
T2 sequence (P06493 whole entry): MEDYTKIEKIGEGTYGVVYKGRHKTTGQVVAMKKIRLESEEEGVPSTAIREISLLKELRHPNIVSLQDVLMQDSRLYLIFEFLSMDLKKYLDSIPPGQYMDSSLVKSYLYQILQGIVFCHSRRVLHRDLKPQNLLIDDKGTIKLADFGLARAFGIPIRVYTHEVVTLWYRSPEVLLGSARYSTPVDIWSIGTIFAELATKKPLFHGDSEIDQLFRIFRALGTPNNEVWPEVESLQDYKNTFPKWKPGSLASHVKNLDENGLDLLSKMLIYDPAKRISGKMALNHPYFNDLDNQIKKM
T2 sequence (P14635 whole entry partner): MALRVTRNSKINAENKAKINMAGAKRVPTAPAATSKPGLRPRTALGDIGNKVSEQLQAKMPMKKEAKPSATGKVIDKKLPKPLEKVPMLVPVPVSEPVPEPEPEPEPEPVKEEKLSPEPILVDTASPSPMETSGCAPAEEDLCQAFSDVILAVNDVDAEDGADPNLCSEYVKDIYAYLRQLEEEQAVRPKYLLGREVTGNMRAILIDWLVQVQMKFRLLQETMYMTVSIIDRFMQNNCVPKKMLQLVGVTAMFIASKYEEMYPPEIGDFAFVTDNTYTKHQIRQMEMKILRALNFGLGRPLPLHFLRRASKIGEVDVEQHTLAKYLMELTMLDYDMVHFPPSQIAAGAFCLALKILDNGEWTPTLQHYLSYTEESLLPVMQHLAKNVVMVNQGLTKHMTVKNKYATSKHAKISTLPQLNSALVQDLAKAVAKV
How it was run: as §2

cyclin D1/cdk 4 enzyme = biological target: T3, cyclin D1/cdk 4 enzyme (Homo sapiens, UniProt P11802); test: CDK4 ELISA kinase assay (phospho-Rb ser 795 detection); type: biochemical; conditions: In Vitro Enzyme Assays, 200 μM ATP, read-out: CDK4 IC50
T3 construct: made in house; host or cells: Sf9 insect cells, recombinant baculovirus
T3 sequence (P11802 whole entry, species assumed): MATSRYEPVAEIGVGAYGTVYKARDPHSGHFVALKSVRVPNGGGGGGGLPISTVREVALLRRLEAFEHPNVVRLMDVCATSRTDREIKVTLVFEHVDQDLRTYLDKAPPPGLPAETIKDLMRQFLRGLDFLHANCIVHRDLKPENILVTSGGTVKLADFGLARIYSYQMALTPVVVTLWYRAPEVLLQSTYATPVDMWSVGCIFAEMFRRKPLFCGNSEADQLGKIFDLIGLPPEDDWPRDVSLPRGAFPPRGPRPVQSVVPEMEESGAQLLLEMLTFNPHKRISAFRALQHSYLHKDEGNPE
T3 sequence (P24385 whole entry partner, species assumed): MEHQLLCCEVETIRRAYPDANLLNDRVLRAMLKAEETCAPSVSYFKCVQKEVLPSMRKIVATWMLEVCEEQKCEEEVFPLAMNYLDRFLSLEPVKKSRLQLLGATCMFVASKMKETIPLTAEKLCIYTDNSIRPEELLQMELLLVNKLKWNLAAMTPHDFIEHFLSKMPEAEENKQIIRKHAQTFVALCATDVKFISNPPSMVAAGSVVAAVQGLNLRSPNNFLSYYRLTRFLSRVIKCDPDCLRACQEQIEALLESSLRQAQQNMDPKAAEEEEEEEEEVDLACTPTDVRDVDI
How it was run: as §2

IGF1-receptor kinase = biological target: T4, IGF1-receptor kinase (Homo sapiens, UniProt P08069); test: IGF1-R kinase assay (96-well FRET Lance); type: biochemical; conditions: 100 micromolar ATP; read-out: Igfr ic50
T4 construct: Purified GST-IGFR; purified Bis-IGFR and Tris-IGFR; fused on or other part: GST with a thrombin cleavage site, removed in the Bis-IGFR and Tris-IGFR forms
T4 sequence (P08069 999-1274 limits assumed): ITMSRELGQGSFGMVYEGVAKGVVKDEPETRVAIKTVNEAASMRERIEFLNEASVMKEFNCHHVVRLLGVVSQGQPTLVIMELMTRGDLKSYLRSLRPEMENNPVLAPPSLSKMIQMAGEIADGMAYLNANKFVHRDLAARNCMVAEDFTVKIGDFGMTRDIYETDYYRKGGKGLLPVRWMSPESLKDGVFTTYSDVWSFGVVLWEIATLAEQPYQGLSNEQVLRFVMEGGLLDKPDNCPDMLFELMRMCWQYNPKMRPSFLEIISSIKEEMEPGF
Source text: • TITLE: 96-well assay for inhibitors of IGF1-receptor kinase activity • SHORT TITLE: IGF1-R kinase assay • PURPOSE: Identify inhibitors of IGF-1 receptor kinase activity • MATERIALS AND METHODS: Overview: This is a 96-well FRET (Lance) tyrosine kinase assay. • Materials: • Purified GST-IGFR; purified Bis-IGFR and Tris-IGFR; expressed in ExpresSF insect cells. Bis and Tris IGFR are made by phosphorylating the IGFR in the presence of ATP and Mg2+, followed by thrombin cleavage to remove the GST-thrombin cleavage site, and purification by HPLC. The Bis and tris IGFR are phosphorylated on two (bis) or all three tyrosines (tris) in the activation loop. • Biotinylated peptide with a sequence corresponding to the sequence surrounding the autophosphorylation sites in IGF1-R Biotin-NH2-[…]-OH (Anaspec) • Europium-conjugated phosphotyrosine antibody (PT66) (Perkin-Elmer). • Surelight APC (Perkin-elmer) • Plates: 96-well Assay plates (polypropylene plates, natural color) • 96-well-Lance plates (Microfluor 2 black plates; Cat # 7205; Thermolabsystems. • ATP: (Amersham Pharmacia Cat # 27-2056-01), 100 mM stock. • IGFR Lance Protocol (96-well format) • Procedure: • Reagents: • Kinase Buffer (10×): • 0.5 M Hepes, pH 7.5 rt • 0.1 M MgCl2 • Quench Buffer (to be added straight, 1:1, to r×n mix): • 50 mM Hepes, pH 7.5 rt • 50 mM EDTA • Lance Detection Buffer: • 20 mM Tris-HCl, pH 7.5 rt • 0.15 M NaCl-150 • 150 ug/ml BSA (Sigma Cat# A-7284) • Eu-labeled phosphotyrosine antibody PT66 (Perkin-Elmer): 1:4000 dilution of 200 μg/ml stock • Streptavidin-APC (Perkin Elmer): 1/250 (4 microgram/ml final) • ATP (Amersham Pharmacia cat #27-2056-01) 100 mM stock: Dilute to 1 mM (10×) in water. […] Transfer 12.5[…] of the kinase reaction to the antibody detection plate. Allow antibody to react for 1 h at rt in the dark. Then read in Victor with an excitation filter of 340 nm and an emission filter of 665 nm. • Compound additions: • When Example compounds are tested, they are added from a 10% DMSO/50 mM Hepes (pH 7.5) 10× stock. 5 microliters of compound in this buffer are added to the enzyme-peptide-buffer mix. After 10′ incubation at room temperature, ATP is added to start the reaction. A no ATP background control is included in the assay. • […] OF RESULTS: Data are analyzed as follows: % Inhibition={[Sample cpm−Bkg cpm]/[No cmpd cpm−Bkg cpm]}×100%. The biological activity of representative Examples of the invention is reported in Table VII as: 0.2 µM≦x≦10 µM or % inhibition@10 µM.

Row | Structure (SMILES) | IC50 (HCT-116) | IC50 (SK-UT-1B) | IC50 (cyclin E/CDK2 enzyme) | melting point | IC50 (BT474) | IC50 (MCF-7) | IC50 (LoVo) | IC50 (cyclin B/CDK1 enzyme) | IC50 (cyclin D1/cdk 4 enzyme) | IC50 (IGF1-receptor kinase)
1 | COCC1CCCN1Cc1ccc(N/C=C2\C(=O)NC(=O)c3ccc(Br)cc32)cc1 (stereo in doubt) [Example 39] | 7.5 µM | 10 µM | > 50 µM | 129 to 130 °C | 7.9 µM | 6.3 µM | 9.4 µM | > 50 µM | 1.1 µM | 
2 | COc1ccc(N/C=C2\C(=O)NC(=O)c3ccccc32)cc1 [Example 1, (4Z)-4-{[(4-Methoxyphenyl)amino]methylene}isoquinoline-1,3(2H,4H)-dione] | 29 µM | > 36 µM | 18.9 µM | 150 to 151 °C | 43 µM | 19 µM | 30 µM | > 36 µM | 38 µM | 
3 | CN1CCN(c2ccc(N/C=C3\C(=O)NCc4ccccc43)cc2)CC1 [Example 2, (4Z)-4-({[4-(4-Methyl-1-piperazinyl)phenyl]amino}methylene)-1,4-dihydro-3(2H)-isoquinolinone] | 7.4 µM | 4.3 µM | > 29 µM | 186 to 187 °C (dec.) | 21.5 µM | 6.7 µM | 7.8 µM | > 29 µM | 12.1 µM | 
4 | O=C1NC(=O)c2ccccc2/C1=C/Nc1ccc(CCN2CCCC2)cc1 [Example 5, (4Z)-4-({[4-(2-Pyrrolidin-1-ylethyl)phenyl]amino}methylene)isoquinoline-1,3(2H,4H)-dione] | 10.8 µM | 10.2 µM | > 28 µM | 224 to 225 °C |  | 8 µM |  | > 28 µM | 10.2 µM | 
5 | O=C1NC(=O)c2ccccc2/C1=C/Nc1ccc2ncccc2c1 [Example 8, (4Z)-4-[(Quinolin-6-ylamino)methylene]isoquinoline-1,3(2H,4H)-dione] | > 50 µM | 8.9 µM | > 32 µM | 277 to 278 °C | > 50 µM | > 50 µM | > 50 µM | > 32 µM | > 50 µM | 
6 | O=C1NC(=O)c2ccccc2/C1=C\c1ccc(O)cc1 [Example 11, (4E)-4-(4-hydroxybenzylidene)isoquinoline-1,3(2H,4H)-dione] | 2.3 µM | > 36 µM | > 37 µM | 242 to 243 °C | > 50 µM | 18 µM | 6.8 µM | > 37 µM | > 50 µM | 
7 | O=C1NC(=O)c2ccccc2/C1=C/Nc1ccc(CN2CCCCC2)cc1 [Example 13, (4Z)-4-({[4-(Piperidin-1-ylmethyl)phenyl]amino}methylene)isoquinoline-1,3(2H,4H)-dione] | 8.6 µM | 11.3 µM |  | 185 to 186 °C | 27 µM | 7.3 µM | 15 µM | > 28 µM | 7.9 µM | 
8 | CN1CCN(Cc2ccc(N/C=C3\C(=O)NC(=O)c4ccccc43)cc2)CC1 [Example 20] | 10 µM | 18.5 µM |  | 231 to 232 °C |  | 14 µM |  | > 26 µM | 6.7 µM | 
9 | O=C1NC(=O)c2ccccc2/C1=C/Nc1ccc(CN2CCC(O)CC2)cc1 [Example 23, (4Z)-4-[({4-[(4-Hydroxypiperidin-1-yl)methyl]phenyl}amino)methylene]isoquinolin-1,3(2H,4H)-dione] | 10.5 µM | 16.3 µM | 26 µM | 224 to 225 °C |  | 8.7 µM |  | > 26 µM | 5.15 µM | 
10 | O=C1NC(=O)c2ccc(Br)cc2/C1=C/Nc1ccc(CN2CCCCC2)cc1 [Example 24, (4Z)-6-Bromo-4-{[(4-piperidin-1-ylmethyl)phenyl]amino}methyleneisoquinoline-1,3(2H,4H)-dione] | 5 µM | 7.8 µM |  | 222 to 225 °C | 4.8 µM | 3.1 µM | 6 µM | > 50 µM |  | 
11 | O=C1NC(=O)c2ccccc2/C1=C/Nc1ccc(CN2CCCCCC2)cc1 [Example 26, (4Z)-4-({[4-(Azepan-1-ylmethyl)phenyl]amino}methylene)isoquinoline-1,3(2H,4H)-dione] | 7.3 µM | 6.1 µM | > 27 µM | 198 to 200 °C |  | 8 µM |  | > 27 µM | 4.3 µM | 
12 | CN(C(=O)CN1CCCCC1)c1ccc(N/C=C2\C(=O)NC(=O)c3ccccc32)cc1 [Example 29, N-(4-{[(Z)-(1,3-Dioxo-2,3-dihydroisoquinolin-4(1H)-ylidene)methyl]amino}phenyl)-1,3(2H,4H)-dione N-Methyl-2-piperidin-1-ylacetamide] | 21 µM | 17 µM | > 23 µM | 223 to 224 °C | 21 µM | 12 µM | 19 µM | > 23 µM | 15 µM | 
13 | O=C1NC(=O)c2ccc(Br)cc2/C1=C/NCc1ccncc1 [Example 31, (4Z)-6-Bromo-4-{[(pyridin-4-ylmethyl)amino]methylene}isoquinoline-1,3(2H,4H)-dione] | 31 µM | > 50 µM | 2.4 µM | 258 to 259 °C | 41 µM | > 50 µM | > 50 µM | > 50 µM | > 50 µM | 
14 | COC[C@H]1CCCN1Cc1ccc(N/C=C2\C(=O)NC(=O)c3ccc(Br)cc32)cc1 [Example 38] | 7.3 µM | 11 µM | > 50 µM | 129 to 130 °C | 2.8 µM | 3.7 µM | 7.9 µM | > 50 µM | 1.1 µM | 
15 | O=C1NC(=O)c2cc(Br)ccc2/C1=C/Nc1ccc(CN2CCCCC2)cc1 [Example 44, (4Z)-7-Bromo-4-({[4-(Piperidin-1-ylmethyl)phenyl]amino}methylene)isoquinoline-1,3(2H,4H)-dione] | 3.6 µM | 3.5 µM |  | 242 to 243 °C | 4.6 µM | 6.6 µM | 4 µM |  |  | 
16 | CC(=O)c1cccc(Nc2ccc3c(c2)/C(=C/Nc2ccc(N4CCN(C)CC4)cc2)C(=O)NC3=O)c1 [Example 881] |  |  |  |  |  |  |  |  |  | 0.361 µM
